{"source": "ChEMBL document CHEMBL5550131", "about": "“Medicinal chemistry strategies toward broad-spectrum antiviral agents to prevent next pandemics” (Eur J Med Chem, 2024)", "key": {"Human alphaherpesvirus 1": {"tested_on": "Human alphaherpesvirus 1", "test": "Antiviral activity against HSV 1 infected in African green monkey Vero cells assessed as reduction in plaque formation incubated for 36 hrs by crystal violet staining based assay", "type": "functional, organism-based", "conditions": "Human alphaherpesvirus 1, Vero"}, "[1]": {"test": "Inhibition of Influenza A virus RNA-dependent RNA polymerase"}, "[2]": {"molecular_target": "Dihydroorotate dehydrogenase (quinone), mitochondrial (Homo sapiens, UniProt Q02127)", "sequence (Q02127 whole entry)": "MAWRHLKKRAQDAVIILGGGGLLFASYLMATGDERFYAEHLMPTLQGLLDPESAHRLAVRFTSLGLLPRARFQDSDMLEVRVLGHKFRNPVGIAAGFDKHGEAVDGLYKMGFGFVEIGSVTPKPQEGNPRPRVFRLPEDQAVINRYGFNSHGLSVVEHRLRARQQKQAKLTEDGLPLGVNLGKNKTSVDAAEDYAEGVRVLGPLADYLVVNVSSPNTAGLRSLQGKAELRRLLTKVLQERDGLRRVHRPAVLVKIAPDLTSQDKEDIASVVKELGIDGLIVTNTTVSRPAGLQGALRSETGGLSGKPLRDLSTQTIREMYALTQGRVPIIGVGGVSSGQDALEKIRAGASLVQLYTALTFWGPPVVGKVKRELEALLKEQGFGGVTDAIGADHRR", "test": "Inhibition of DHOH (unknown origin)"}, "clinical": {"test": "clinical", "conditions": "human, in vivo, iv, 5 mg/kg", "description": "Elimination half life in human at 5 mg/kg, iv"}, "Enterovirus": {"tested_on": "Enterovirus", "test": "Antiviral activity against Enterovirus infected in human H1-HeLa cells incubated for 3 days by crystal violet staining based plaque counting analysis", "type": "functional, organism-based", "conditions": "72 h"}, "rhinovirus B14": {"tested_on": "rhinovirus B14", "test": "Antiviral activity against human Rhinovirus 14 infected in H1-HeLa cells incubated for 3 days by crystal-violet staining based analysis", "type": "functional, organism-based", "conditions": "Rhinovirus B, 72 h"}, "Influenza A virus": {"tested_on": "Influenza A virus", "test": "Anti-influenza activity against Influenza A virus infected in MDCK cells assessed as reduction in virus-induced cytopathic effect incubated for 48 hrs by CCK-8 assay", "type": "functional, organism-based"}, "[3]": {"test": "Inhibition of Hepatitis C virus NS5B RNA dependent RNA polymerase", "set-up": "species or system Hepacivirus hominis"}, "[4]": {"test": "Elimination half life in human", "type": "ADME", "conditions": "read-out: beta t1/2 (converted)"}}}
{"smiles": "C=CCNC1=C2C[C@@H](C)C[C@H](OC)[C@H](O)[C@@H](C)/C=C(\\C)[C@H](OC(N)=O)[C@@H](OC)/C=C/C=C(\\C)C(=O)NC(=CC1=O)C2=O", "values": [{"measurement": "IC50", "setting": "Human alphaherpesvirus 1", "result": 0.0078, "unit": "µM"}]}
{"smiles": "NC(=O)c1nc(F)cn([C@@H]2O[C@H](COP(=O)(O)OP(=O)(O)OP(=O)(O)O)[C@@H](O)[C@H]2O)c1=O", "values": [{"measurement": "IC50", "setting": "[1]", "result": 0.341, "unit": "µM"}]}
{"smiles": "CN(/N=C/c1ccccc1C(=O)O)c1nc(-c2ccccc2Cl)cs1", "values": [{"measurement": "IC50", "setting": "[2]", "result": 0.0075, "unit": "µM"}]}
{"smiles": "CCC(CC)COC(=O)[C@H](C)N[P@](=O)(OC[C@H]1O[C@@](C#N)(c2ccc3c(N)ncnn23)[C@H](O)[C@@H]1O)Oc1ccccc1", "values": [{"measurement": "half-life", "setting": "clinical", "result": 0.48, "unit": "h"}]}
{"smiles": "COc1ccc(OCCCCCCn2ccnc2)c(Cl)c1", "values": [{"measurement": "EC50", "setting": "Enterovirus", "result": 10, "unit": "µM"}, {"measurement": "EC50", "setting": "rhinovirus B14", "result": 10, "unit": "µM"}]}
{"smiles": "O=[N+]([O-])c1ccc(CNc2ccc3ncsc3c2)cc1", "values": [{"measurement": "IC50", "setting": "Influenza A virus", "result": 3.36, "unit": "µM"}]}
{"smiles": "C[C@@]1(O)[C@H](O)[C@@H](CO)O[C@H]1n1ccc2c(N)ncnc21", "note": "[BETA-2'-C-METHYL-7-DEAZA-ADENOSINE]", "values": [{"measurement": "IC50", "setting": "[3]", "result": 5, "unit": "µM"}]}
{"smiles": "N#C[C@@]1(c2ccc3c(N)ncnn23)O[C@H](COP(=O)(O)OP(=O)(O)OP(=O)(O)O)[C@@H](O)[C@H]1O", "note": "[RDV-TP]", "values": [{"measurement": "half-life", "setting": "[4]", "result": 26.6, "unit": "h"}]}
